The compounds below were run against recombinant IL4I1 (Homo sapiens (Human), UniProt Q96RQ9) (assay: IL4I1 Enzymatic Assay (Amplex Red/HRP coupled fluorescence detection of H2O2)). Details: 240 min; recombinant IL4I1, four-hour pre-incubation with compound.
Chain of recombinant IL4I1 (Q96RQ9 22-567): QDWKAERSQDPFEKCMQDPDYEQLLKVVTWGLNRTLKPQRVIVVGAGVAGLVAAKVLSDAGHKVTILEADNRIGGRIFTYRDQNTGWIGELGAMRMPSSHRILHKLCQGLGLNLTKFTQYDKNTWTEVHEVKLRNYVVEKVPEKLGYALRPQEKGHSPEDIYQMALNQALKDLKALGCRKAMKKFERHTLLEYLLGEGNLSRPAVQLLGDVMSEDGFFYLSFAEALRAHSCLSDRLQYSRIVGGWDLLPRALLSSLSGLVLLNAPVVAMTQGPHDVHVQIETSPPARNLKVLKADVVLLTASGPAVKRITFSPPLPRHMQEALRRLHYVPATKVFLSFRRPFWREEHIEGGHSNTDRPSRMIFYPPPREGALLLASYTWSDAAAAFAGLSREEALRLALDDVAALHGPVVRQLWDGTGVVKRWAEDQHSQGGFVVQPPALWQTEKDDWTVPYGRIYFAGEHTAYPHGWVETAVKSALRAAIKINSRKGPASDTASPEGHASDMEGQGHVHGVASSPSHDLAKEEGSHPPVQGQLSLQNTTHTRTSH
Type: biochemical
Method in brief: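 Ten-point, 1:3 compound titrations were fitted by four-parameter sigmoidal regression to give EC50. Resorufin fluorescence (544/590 nm) from Amplex Red/HRP-coupled H2O2 detection was read 120 min after adding 1 mM each aromatic amino acid to 1 nM IL4I1, following a 4 h compound pre-incubation in pH 7.0 Hepes buffer.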
Compound `CC1(n2ccn(Cc3cn(-c4cccnc4)nn3)c(=O)c2=O)CC1` [Example 429, 1-(1-methylcyclopropyl)-4-((1-(pyridin-3-yl)-1H-1,2,3-triazol-4-yl)methyl)-1,4-dihydropyrazine-2,3-dione] has an EC50 of 29 nM.
In the case of `COCC(C)(C)N1CCN(Cc2nnc(-c3ccccc3)s2)C(=O)C1=O` [Example 299, 1-(1-methoxy-2-methylpropan-2-yl)-4-((5-phenyl-1,3,4-thiadiazol-2-yl)methyl)piperazine-2,3-dione], the EC50 is reported as 56 nM.
Work on `CC1(n2ccn(Cc3ccc(-n4ccnn4)nn3)c(=O)c2=O)CC1` [Example 334, 1-((6-(1H-1,2,3-triazol-1-yl)pyridazin-3-yl)methyl)-4-(1-methylcyclopropyl)-1,4-dihydropyrazine-2,3-dione] yielded an EC50 of 29 nM.
`CC(C)N1CCN(Cc2ncc(-c3ccccc3)cn2)C(=O)C1=O` [Example 286, 1-isopropyl-4-((5-phenylpyrimidin-2-yl)methyl)piperazine-2,3-dione] was tested, and the EC50 was 34 nM.
In the case of `O=c1c(=O)n([C@H]2C[C@H](c3ccccc3)C2)ccn1Cc1nnc(-c2ccccc2)s1` [Example 47, 1-((5-phenyl-1,3,4-thiadiazol-2-yl)methyl)-4-((trans)-3-phenylcyclobutyl)-1,4-dihydropyrazine-2,3-dione], the EC50 is reported as 3 nM.
`O=C1C(=O)N(C2CCCC2)CCN1Cc1ccc(N2CCC(F)(F)C2)nn1` [Example 319, 1-cyclopentyl-4-((6-(3,3-difluoropyrrolidin-1-yl)pyridazin-3-yl)methyl)piperazine-2,3-dione] showed an EC50 of 30 nM.
With `O=C1C(=O)N(C2CCCC2)CCN1Cc1ccc(-c2ccccc2F)nn1` [Example 9, 1-cyclopentyl-4-((6-(2-fluorophenyl)pyridazin-3-yl)methyl)piperazine-2,3-dione] the EC50 was 15 nM.
`O=C1C(=O)N(C2CCCC2)CCN1Cc1ccc(N2CCC(F)C2)nc1` (stereo not shown) [Example 393, 1-cyclopentyl-4-((6-(3-fluoropyrrolidin-1-yl)pyridin-3-yl)methyl)piperazine-2,3-dione] gave an EC50 of 33 nM.
Compound `CC1(n2ccn(Cc3ccc(-n4cccn4)cn3)c(=O)c2=O)CC1` [Example 381, 1-((5-(1H-pyrazol-1-yl)pyridin-2-yl)methyl)-4-(1-methylcyclopropyl)-1,4-dihydropyrazine-2,3-dione] has an EC50 of 40 nM.
Work on `O=C1C(=O)N(C2CCCC2)CCN1Cc1ccc(-n2nccn2)cn1` [Example 380, 1-((5-(2H-1,2,3-triazol-2-yl)pyridin-2-yl)methyl)-4-cyclopentylpiperazine-2,3-dione] yielded an EC50 of 17 nM.
Work on `O=c1c(=O)n(C2CCC2)ccn1Cc1cc(-c2ccc(F)cc2)on1` [Example 55, 1-cyclobutyl-4-((5-(4-fluorophenyl)isoxazol-3-yl)methyl)-1,4-dihydropyrazine-2,3-dione] yielded an EC50 of 1 nM.
Compound `O=c1c(=O)n(C23CC(F)(C2)C3)ccn1Cc1ccc(-c2cncs2)nn1` [Example 213, 1-(3-fluorobicyclo[1.1.1]pentan-1-yl)-4-((6-(thiazol-5-yl)pyridazin-3-yl)methyl)-1,4-dihydropyrazine-2,3-dione] has an EC50 of 29 nM.
`CC1(n2ccn(Cc3cc(-c4cccc(F)c4)on3)c(=O)c2=O)CCC1` [Example 421, 1-((5-(3-fluorophenyl)isoxazol-3-yl)methyl)-4-(1-methylcyclobutyl)-1,4-dihydropyrazine-2,3-dione] was tested, and the EC50 was 5 nM.
`O=c1c(=O)n([C@H]2C[C@H]3C[C@H]3C2)ccn1Cc1nnc(-c2ccccc2)s1` [Example 39, 1-((cis)-bicyclo[3.1.0]hexan-3-yl)-4-((5-phenyl-1,3,4-thiadiazol-2-yl)methyl)-1,4-dihydropyrazine-2,3-dione] gave an EC50 of 3 nM.
`C[C@@H](c1nnc(-c2ccccc2)s1)N1CCN(C2CCCC2)C(=O)C1=O` [Example 349, (S)-1-cyclopentyl-4-(1-(5-phenyl-1,3,4-thiadiazol-2-yl)ethyl)piperazine-2,3-dione] was tested, and the EC50 was 25 nM.
Work on `O=C1C(=O)N(C2CCC2)CCN1Cc1ccc(-c2ccccc2)cn1` [Example 26, 1-cyclobutyl-4-((5-phenylpyridin-2-yl)methyl)piperazine-2,3-dione] yielded an EC50 of 6 nM.
With `O=C1C(=O)N(C2CCC2)[C@H]2CCC[C@@H]2N1Cc1ccc(-c2ccccc2)nn1` (single isomer, unassigned) [Example 435A, (S,S or R,R)-1-cyclobutyl-4-((6-phenylpyridazin-3-yl)methyl)hexahydro-1H-cyclopenta[b]pyrazine-2,3-dione] the EC50 was 85 nM.
In the case of `O=C1C(=O)N(C23CC(C2)C3)CCN1Cc1ncc(-c2ccccc2)cn1` [Example 276, 1-(bicyclo[1.1.1]pentan-1-yl)-4-((5-phenylpyrimidin-2-yl)methyl)piperazine-2,3-dione], the EC50 is reported as 26 nM.
With `O=C1C(=O)N(C2CC(F)C2)CCN1Cc1nnc(-c2ccccc2)s1` (stereo not shown) [Example 290, 1-(3-fluorocyclobutyl)-4-((5-phenyl-1,3,4-thiadiazol-2-yl)methyl)piperazine-2,3-dione] the EC50 was 8 nM.
`CC1CN(C2CCC2)C(=O)C(=O)N1Cc1nnc(-c2ccccc2)s1` (stereo not shown) [Example 357, 1-cyclobutyl-5-methyl-4-((5-phenyl-1,3,4-thiadiazol-2-yl)methyl)piperazine-2,3-dione] was tested, and the EC50 was 32 nM.
`CC1(n2ccn(Cc3cc(-c4cccc(F)c4)no3)c(=O)c2=O)CCC1` [Example 186, 1-((3-(3-fluorophenyl)isoxazol-5-yl)methyl)-4-(1-methylcyclobutyl)-1,4-dihydropyrazine-2,3-dione] gave an EC50 of 4 nM.
Compound `O=C1C(=O)N(C2CCC2)CCN1Cc1nnc(-c2ccc(F)cc2)s1` [Example 29, 1-cyclobutyl-4-((5-(4-fluorophenyl)-1,3,4-thiadiazol-2-yl)methyl)piperazine-2,3-dione] has an EC50 of 9 nM.
Work on `O=c1c(=O)n(C23CC(C2)C3)ccn1Cc1cc(-c2ccccc2F)on1` [Example 77, 1-(bicyclo[1.1.1]pentan-1-yl)-4-((5-(2-fluorophenyl)isoxazol-3-yl)methyl)-1,4-dihydropyrazine-2,3-dione] yielded an EC50 of 3 nM.
Compound `O=c1c(=O)n(C23CC(C2)C3)ccn1Cc1ccc(-n2ccnn2)nc1` [Example 411, 1-((6-(1H-1,2,3-triazol-1-yl)pyridin-3-yl)methyl)-4-(bicyclo[1.1.1]pentan-1-yl)-1,4-dihydropyrazine-2,3-dione] has an EC50 of 7 nM.
Work on `CC1(n2ccn(Cc3cc(-c4ccc(F)cc4)on3)c(=O)c2=O)CCC1` [Example 422, 1-((5-(4-fluorophenyl)isoxazol-3-yl)methyl)-4-(1-methylcyclobutyl)-1,4-dihydropyrazine-2,3-dione] yielded an EC50 of 5 nM.
Compound `N#CC1(n2ccn(Cc3ccc(-n4nccn4)cn3)c(=O)c2=O)CC1` [Example 413, 1-(4-((5-(2H-1,2,3-triazol-2-yl)pyridin-2-yl)methyl)-2,3-dioxo-3,4-dihydropyrazin-1(2H)-yl)cyclopropane-1-carbonitrile] has an EC50 of 66 nM.
`O=C1C(=O)N(C2CCCC2)CCN1Cc1ncc(-c2cn[nH]c2)cc1F` [Example 16, 1-cyclopentyl-4-((3-fluoro-5-(1H-pyrazol-4-yl)pyridin-2-yl)methyl)piperazine-2,3-dione] showed an EC50 of 16 nM.
Compound `O=C1C(=O)N(C2CCCC2)CCN1CCc1nnc(-c2ccccc2)s1` [Example 350, 1-cyclopentyl-4-(2-(5-phenyl-1,3,4-thiadiazol-2-yl)ethyl)piperazine-2,3-dione] has an EC50 of 5 nM.

— US20240246937A1 (MERCK SHARP & DOHME LLC, priority 2021, published 2024)
